Source: patent publication US5853748A, “Pharmaceutical compositions” (priority 1994, dated 1998)
Read-outs that look alike come from different tables or passages of the source.

Key:
in vitro [1] = conditions: human, hbss
Procedure: (§1) A neutral red stock solution was prepared at concentration of 0.5 mg/ml in DMEM (Dulbecco's Modified Eagle Medium) (pH 4.5) which was then diluted 1:10 with TCM (Tissue Culture Medium) or Hanks Balanced Salt Solution (HBSS) before use.
(§2) Test solutions were prepared containing various concentrations of a bile salt in either HBSS or in one of the 0.1M buffer solution. The following bile salts were tested:
(§3) Test plates were set up by aliquotting 200 μl of a Caco-2 cell suspension containing 1×10^5 cells/ml into each well of a 96-well microtitre plate. The outermost wells were filled with 200 μl saline alone, to counteract the effects of evaporation. The cells were incubated in high glucose Dulbecco's modified eagles medium (DMEM) tissue culture medium (TCM) at […], 5% CO2 in air, for 8 days, with feeding where necessary. The cells were then used for performance of either an initial insult or a recovery study.
(§4) B. Recovery from Toxic Insult
(§5) Neutral red stain is actively taken up by viable cells and non-viable cells will not stain. Cells with increased cell membrane permeability will have a reduced stain content. […] A 2-hour exposure period is used together with a 3-hour recovery period in optimal growth material during which stain is taken up. The following protocol was followed:
(§6) TCM was removed from each well and replaced with 150 μl of the appropriate buffer.
(§7) Buffer was removed from wells in column 2 and replaced with 150 μl of test solutions at the highest concentration.
(§8) 150 μof test solutions was added to each of wells in column 3, mixed gently by aspirating repeatedly, and 150 μl transferred to wells in column 4. This process was repeated down the plate to obtain two-fold serial dilutions of test material along each row. One row on each plate was allocated to HBSS as a control, and one row for a buffer control if necessary. The cells were incubated for 2 hours at 37° C. in CO2.
(§9) The supernatant liquid was then removed from cell monolayers in each well and replaced with 200 μl of stain.
(§10) The plates were incubated for 3 hours at 37° C., 5% CO2. […]

in vitro [2] = conditions: human, hbss; remark: listed apart in the source
Procedure: as §2
(§11) A MTT stock solution was prepared at a concentration of 5 mg/ml in distilled water, which was then diluted 1:10 with TCM before use.
(§12) Test plates were set up by aliquotting 200 μl of a Caco-2 cell suspension containing 1×10^5 cells/ml into wells of a 96-well microtitre plate. The outermost wells on each plate were left blank, and filled with 200 μl saline, to counteract the effects of evaporation. The cells were is incubated in high glucose DMEM tissue culture medium (TCM) at 37° C., 5% CO2 in air, for 8 days, with feeding when necessary.
(§13) MTT is a tetrazolium salt which is converted by mitochondrial dehydrogenases in viable cells to form an insoluble purple crystal. Dead cells would not effect this conversion. Crystal formation can be quantified colorimetrically and used to asses mitochondrial activity and therefore cell viability. The preparation of MTT stock solution, test solutions and buffer solution is described above.
(§14) In this procedure, cells are first incubated with test materials and then incubated with MTT and measurements are made to determine the extent to which incubation with test materials has altered the mitochondrial activity of the cells. A two hour exposure period is used together with a three hour recovery period during which time staining is conducted.
(§15) TCM was removed from each well and replaced with 150 Al of the appropriate buffer.
as §7
(§16) 150 μl of test solutions was added to each of wells in column 3, mixed gently by aspirating repeatedly, and 150 μl transferred to wells in column 4. This process was repeated down the plate to obtain two-fold serial dilutions of test material along each row. […]
(§17) Absorbances were measured on a plate reader as the difference between 550 and 650 nm, and readings compared with buffer controls to assess change in mitochondrial activity. […]

in vitro [3] = conditions: human, hbss; remark: listed apart in the source
Procedure: as §1, §2
as §3, with “study. […]” for “study.”
Neutral red stain is actively taken up by viable cells. Cells with more permeable membranes will lose stain into the bathing medium and thus cell membrane permeability can be directly assessed after exposure to the test material by quantifying the stain remaining in the cell. […]
In order to quantify the amount of stain remaining in the cells, absorbances were measured on a plate reader at 550 nm, and readings compared with buffer controls to assess leakage of the stain from the cells. […]

[4] = at the pH values contemplated (7.5 to 9); cited from earlier work
[5] = In vivo efficacy study, salmon calcitonin, intrajejunal, pigs (plasma calcium); set-up: species or system Pigs (large white×large white/landrace); conditions: […] iu sCT intrajejunal in 2 ml, with 25 or 50 mg sodium chenodeoxy cholate, pH 7.5 or 6.5
Procedure: Dosing of salmon calcitonin (sCT) was administered by instillation via the indwelling cannula into the jejunum, followed by flushing with warm sterile water. 8 ml blood samples were removed at various times before and after dosing, and divided into two portions. One portion was allowed to clot at room temperature, and the serum removed and stored at -20° C. until ready for use. The other portion was transferred to heparinised tubes to which 4000 kiu aprotinin was added, and the plasma decanted after centrifugation and stored at -20° C. Serum calcium levels were measured colorimetrically after complexation with the calcium-sensitive chelating agent arsenazo III.
Nine animals were used in the study, and formulations were administered on three separate days, each separated by at least one day, on a random three-way crossover basis, so that all pigs received all three treatments.

[6] = for pH: MES
Excerpt: (§18) The amount of agent necessary to adjust the pH to within the range contemplated is difficult to determine directly because the intestinal pH can vary between 5 to 7, and its aqueous content can vary, as can its intrinsic buffering capacity, which acts to maintain a low pH. Consequently considerations aimed at determining the appropriate quantity of agent controlling pH need to take into account a "worst-case" scenario. An indication may be obtained by observing the pH achieved upon adding a potential pH-adjusting agent to a 50 mM solution of MES (morpholino ethane sulphonic acid) adjusted to pH 6.0.

[7] = for pH: water
Excerpt: as §18
A 0.1M solution of sodium bicarbonate in distilled water was prepared (buffer solution). Similar 0.1M solutions of sodium acetate, sodium borate and sodium carbonate in distilled water were also prepared. These are also referred to in the examples as buffers.

[8] = sodium cholate (Kojima et al); cited from earlier work
[9] = cited from earlier work
Caco-2 cells [10] = assay: in vitro
Procedure: as §1, §2, §3, §4, §5, §6, §7, §8, §9, §10

Caco-2 cells [11] = assay: in vitro; remark: listed apart in the source
Procedure: as §2, §11, §12, §13, §14, §15, §7, §16, §17

C[C@H](CCC(=O)NCC(=O)O)[C@H]1CC[C@H]2[C@@H]3CC[C@@H]4C[C@H](O)CC[C@]4(C)[C@H]3C[C@H](O)[C@]12C [Glycodeoxycholate, sodium glycodeoxycholate]
MNTC at 2 h (in vitro [1]): 313 µg/mL | MNTC at 2 h (in vitro [2]): 313 µg/mL | MNTC at 2 h (in vitro [3]): 313 µg/mL

insulin
solubility [4]: poorly soluble

salmon calcitonin [sCT]
efficacy of bile salts in enhancing uptake of calcitonin (plasma calcium concentration with time, FIG. 6) [5]: dependent on the concentration of bile salt present, and the pH at which it is administered

O=C(O)O [Bicarbonate, sodium bicarbonate]
pH ([6]; 0.002 M): 6.42 | pH ([6]; 0.004 M): 6.58 | pH ([6]; 0.008 M): 6.86 | pH ([6]; 0.016 M): 7.14 | pH ([6]; 0.031 M): 7.40 | pH ([6]; 0.062 M): 7.68 | pH ([6]; 0.500 M): 8.05 | pH ([6]; 1.000 M): 7.96 | pH in the gut ([6]; about 0.045M (about 40 mg sodium bicarbonate in 10 ml)): about 7.5 | pH ([7]; 0.002 M): 8.86 | pH ([7]; 0.004 M): 8.67 | pH ([7]; 0.008 M): 8.63 | pH ([7]; 0.016 M): 8.57 | pH ([7]; 0.031 M): 8.55 | pH ([7]; 0.062 M): 8.49 | pH of 0.1M solution ([7]; 0.1M, confirmed at the end of each of the experiments): ~8.0 | pH ([7]; 0.500 M): 8.16 | pH ([7]; 1.000 M): 8.02 | pH of saturated solution ([7]; saturated (<2M) in water): 8.01

C[C@H](CCC(=O)O)[C@H]1CC[C@H]2[C@@H]3[C@H](O)C[C@@H]4C[C@H](O)CC[C@]4(C)[C@H]3C[C@H](O)[C@]12C [Cholate, sodium cholate]
release of cell membrane components [8]: accelerated | absorption of various substances ([9]; sodium cholate (Kojima et al)): capable of increasing the absorption of various substances

C[C@H](CCC(=O)NCCS(=O)(=O)O)[C@H]1CC[C@H]2[C@@H]3CC[C@@H]4C[C@H](O)CC[C@]4(C)[C@H]3C[C@H](O)[C@]12C [Taurodeoxycholate, sodium taurodeoxycholate]
MNTC at 2 h (in vitro [1]): 313 µg/mL | MNTC at 2 h (in vitro [2]): 313 µg/mL | MNTC at 2 h (in vitro [3]): 313 µg/mL

somatostatin
bioavailability of somatostatin ([9]; with a cholanic acid derivative such as chenodeoxycholic acid or ursodeoxycholic acid (GB-A-2244918)): can be improved

C[C@H](CCC(=O)NCC(=O)O)[C@H]1CC[C@H]2[C@@H]3[C@H](O)C[C@@H]4C[C@H](O)CC[C@]4(C)[C@H]3C[C@H](O)[C@]12C [Glycocholate, sodium glycocholate]
bioavailability of various substances ([9]; in combination with taurocholate or glycocholate (Kakemi et al)): could be increased

C[C@H](CCC(=O)O)[C@H]1CC[C@H]2[C@@H]3[C@H](O)C[C@@H]4C[C@H](O)CC[C@]4(C)[C@H]3CC[C@]12C [Chenodeoxycholate, sodium chenodeoxycholate]
percentage release of stain (FIG. 4) (Caco-2 cells [10]): much less stain is released from cells which have been incubated at pH above 7.5 | percentage reduction in mitochondrial activity (FIG. 5) (Caco-2 cells [11]): a marked reduction in toxicity is achieved under conditions of elevated pH
